# Values of other authors, collected in patent US20140171436A1, “TREATMENT OF ANTIFOLATE NEUROTOXICITY” (Syntrix Biosystems, Inc., priority 2003, published 2014).
# Where “and” joins values, the source holds several entries; their conditions need not be identical. Identical values can stand only once. Like-named read-outs stand apart in the source and are kept apart here.
# Key:
# [1] = in words; 'No' = none known; cited from earlier work
# [2] = target: sigma-1 receptor (Homo sapiens, UniProt Q99720); settings: cited from earlier work
# Sequence of sigma-1 receptor (Q99720 whole entry, species assumed): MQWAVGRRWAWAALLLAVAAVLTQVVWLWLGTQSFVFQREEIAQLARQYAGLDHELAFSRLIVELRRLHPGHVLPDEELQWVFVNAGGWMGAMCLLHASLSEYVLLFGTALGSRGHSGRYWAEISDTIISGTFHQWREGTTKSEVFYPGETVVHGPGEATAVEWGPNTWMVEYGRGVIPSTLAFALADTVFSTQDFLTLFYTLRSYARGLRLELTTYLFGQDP
# [3] = target: sigma-1 (Cavia porcellus, UniProt Q60492); settings: Table IV, reference 8; read-out: sigma-1 affinity IC50; cited from earlier work
# Sequence of sigma-1 (Q60492 whole entry): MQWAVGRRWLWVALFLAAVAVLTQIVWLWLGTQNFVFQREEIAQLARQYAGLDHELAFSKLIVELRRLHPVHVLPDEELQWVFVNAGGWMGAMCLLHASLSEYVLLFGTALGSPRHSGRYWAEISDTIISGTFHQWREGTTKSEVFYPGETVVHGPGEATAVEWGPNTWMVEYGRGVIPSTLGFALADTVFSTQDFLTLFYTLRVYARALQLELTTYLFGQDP
# [4] = target: NMDA receptor; settings: read-out: Ki NMDAR; cited from earlier work
# [5] = target: sigma-2 (Homo sapiens, UniProt Q5BJF2); settings: read-out: Ki sigma-2; cited from earlier work
# Sequence of sigma-2 (Q5BJF2 whole entry): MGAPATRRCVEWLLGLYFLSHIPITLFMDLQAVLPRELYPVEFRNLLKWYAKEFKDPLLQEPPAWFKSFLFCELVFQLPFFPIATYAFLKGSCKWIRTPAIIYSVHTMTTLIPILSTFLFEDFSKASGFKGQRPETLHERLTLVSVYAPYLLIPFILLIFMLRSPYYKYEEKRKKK
# [6] = cited from earlier work
# [7] = frequent and massive doses as large as 3300 mg/day; cited from earlier work
# [8] = Table II, sigma-1 agonists, read-out: sigma-1 affinity
# [9] = Table III, sigma-1 antagonists, read-out: sigma-1 affinity
# [10] = Table IV, undefined agonist/antagonist activity, read-out: sigma-1 affinity
# [11] = delayed syndrome, moderate dose
compound,measurement,setting,value
CNCCC(Oc1ccc(C(F)(F)F)cc1)c1ccccc1 (centres unmarked) [Fluoxetine],Other known affinity,[1],SSRI
COc1cccc2c1CCC(=O)N2CCCN1CCN(c2cccc(Cl)c2)CC1 [OPC-14523],Ki,[2]; [8],< 50 nM
same,Other known affinity,[1],"Sigma-2, 5HT1AR"
"C[C@]12CC[C@H](OS(=O)(=O)O)CC1=CC[C@@H]1[C@@H]2CC[C@]2(C)C(=O)CC[C@@H]12 [PB-008, dihydroepiandrosterone sulphate]",Ki,[2]; [8],500 to 10000 nM
COc1ccc(N2C[C@H](CN3CCC(O)(c4ccc5c(c4)OCO5)CC3)OC2=O)cc1 [Panamesin],Ki,[2]; [9],< 50 nM
"COCCN1CCN(C[C@H]2CCN(c3ccc(Cl)cc3)C2=O)CC1.O=C(O)C(O)C(O)C(=O)O [MS-377, (R)-(+)-1-(4-chlorophenyl)-3-[4-(2-methoxyethyl)piperazin-1-yl] methyl-2-pyrrolidinone L-tartrate]",Ki,[2]; [9],< 50 nM
same,Other known affinity,[1],No
CN(C)CCOCCOC(=O)N1c2ccccc2Sc2ccccc21 [Dimethoxanate],Ki,[2]; [10],< 50 nM
same,IC50,[3],41 nM
"c1ccc(CN2CCN(Cc3ccc4ccccc4c3)CC2)cc1 [S-21378, 2[(4-benzylpiperazin-1-yl)mothyl] naphthalene, dichiorydrate]",Ki,[2]; [10],< 50 nM
same,Other known affinity,[1],No
"CN1CC[C@]23CCCC[C@H]2[C@H]1Cc1ccc(OCC2CC2)cc13 [CPK-6, 3-cyclopropylmethoxy-17-methylmorphinan]",Ki,[2]; read-out: sigma-1 affinity Ki,148 nM
same,Ki,[4],18000 nM
same,Ki,[5],15000 nM
CC(=O)C1CCC2C3CC=C4CC(OS(=O)(=O)O)CCC4(C)C3CCC12C (centres unmarked) [Pregnenolone sulphate],Ki,[2]; [8],500 to 10000 nM
"C=CCOc1ccc2c(c1)[C@@]13CCCC[C@H]1[C@@H](C2)N(C)CC3 [CPK-5, 3-allyloxy-17-methylmorphinan]",Ki,[2]; read-out: sigma-1 affinity Ki,156 nM
same,Ki,[4],18000 nM
same,Ki,[5],14000 nM
1-(cyclopropylmethyl)-4-(2′-oxoethyl) piperidine HBr [Dup-734],Ki,[2]; [9],< 50 nM
same,Other known affinity,[1],No
"CCC(C/C=C/c1ccccc1)(c1ccccc1)N(C)CC1CC1 (single isomer, unassigned; (+)) [Igmesine, (+) N-cyclopropylmethyl-N-methyl-1,4-diphenyl-1-ethyl-butyl-2-N]",Ki,[2]; [8],< 50 nM
O=C(OCCOCCN1CCCCC1)N1c2ccccc2Sc2cccnc21 [Pipazethate],Ki,[2]; [10],< 50 nM
same,IC50,[3],190 nM
CCN(C/C=C\c1ccc(C2CCCCC2)c(Cl)c1)C1CCCCC1.Cl [SR-31747A],Ki,[2]; [10],< 50 nM
same,Other known affinity,[1],C8-C7 sterol isomerase
CCN(CC)CCOCCOC(=O)C1(c2ccccc2)CCCC1 [Carbetapentane],Ki,[2]; [10],< 50 nM
same,IC50,[3],9 nM
OC(CN1CCC(Cc2ccc(F)cc2)CC1)c1ccc(Cl)cc1 (centres unmarked) [Eliprodil],Ki,[2]; [10],< 50 nM
same,Other known affinity,[1],NMDAR polyamine site
CN(C)CCCN1c2ccccc2CCc2ccccc21 [Imipramine],Ki,[2]; [8],50 to 500 nM
same,Other known affinity,[1],MAOI
"CCCN1CCC[C@H](c2cccc(O)c2)C1 [(+)-3-PPP, R(+)-3-(3-hydroxyphenyl)-N-propylpiperidine]",Other known affinity,[1],Dopamine receptor
"Cc1c(-c2ccccc2)oc2ccc(OCCCCCCN3CCC(O)CC3)cc2c1=O [NPC 16377, 6-[6-(4-hydroxypiperidinyl)hexyloxy]-3-methylflavone]",Other known affinity,[1],No
COC(=O)[C@H]1[C@@H](OC(=O)c2ccccc2)C[C@@H]2CC[C@H]1N2C [Cocaine],Ki,[2]; [8],500 to 10000 nM
"CN(Cc1cnc2nc(N)nc(N)c2n1)c1ccc(C(=O)N[C@@H](CCC(=O)O)C(=O)O)cc1 [MTX, Methotrexate]",Incidence,"[6]; acute syndrome, >1 g/m^2, IT",5-40%.
same,Incidence,"[6]; delayed (chronic) syndrome, low dose <10 mg/m^2 oral",Low - 56%.
same,Incidence,"[6]; delayed syndrome, high dose 7-20 g/m^2 every 1-2 weeks",High - 2.3%.
same,"Typical duration of symptoms, insidiously progressive","[6]; delayed syndrome, high dose",High - Insidiously progressive over 3-6 months.
same,Incidence,"[6]; delayed syndrome, moderate dose 10-1000 mg/m^2, depending on net dose",Moderate - 1.9-19.5% depending on net dose.
same,Radiographic findings: leukoencephalopathy,"[6]; delayed syndrome, moderate dose, depending on dose","Moderate - Leukoencephalopathy in 15-75%,"
same,Permanent sequelae: asymptomatic,[6]; [11],asymptomatic in 63-74%.
same,Permanent sequelae: neuropsychologic impairment,[6]; [11],"neuropsychologic impairment 15%,"
same,Permanent sequelae: recurrent seizures,[6]; [11],"Moderate - Recurrent seizures 7-26%,"
same,"Typical duration of symptoms, mean",[6]; subacute syndrome,Mean 38 hours.
same,mean duration of symptoms,[6]; subacute syndrome,approximately 40 hours
"C=CCN1CCC2(C)c3cc(O)ccc3CC1C2C (single isomer, unassigned; (+)) [(+)-N-allyl-normetazocine]",Ki,[2]; [8],< 50 nM
same,Ki,[2]; read-out: sigma-1 affinity Ki,58 nM
same,Ki,[4],600 nM
same,Ki,[5],14000 nM
"Cc1ccc2c(c1)[C@@]13CCCC[C@H]1[C@@H](C2)N(C)CC3 [Dimemorfan, (+)-3-methyl-N-methylmorphinan]",Ki,[2]; read-out: sigma-1 affinity Ki,151 nM
same,Ki,[4],17000 nM
same,Ki,[5],4000 to 11000 nM
"CN(CCc1ccc(Cl)c(Cl)c1)CCN1CCCC1 [BD-1008, N-[2-(3,4-dicholophenyl)ethyl]-N-methyl-2-(1-pyrrolidinyl)ethylamine]",Other known affinity,[1],sigma-2
CCN(CC)CCOC(=O)C1(c2ccccc2)CCCC1 [Caramiphen],IC50,[3],25 nM
CN1CC[C@@]23CCCC[C@@H]2[C@@H]1Cc1ccc(O)cc13 [dextrorphan],Ki,[2]; read-out: sigma-1 affinity Ki,144 nM and 140 nM
same,side-effects,[7],unacceptable PCP-like side-effects
same,Ki,[5],4000 to 11000 nM
"CC(C)=CCN1CCC2(C)c3cc(O)ccc3CC1C2C (single isomer, unassigned; (+)) [(+)-pentazocine]",Other known affinity,[1],No
"COc1ccc(CCN2CCN(CCCc3ccccc3)CC2)cc1OC.Cl [SA4503, 1-(3,4-dimethoxyphenethyl)-4-(3-phenylpropyl) piperazine HCl]",Other known affinity,[1],No
2-[4-(4-methoxy-benzyl)piperazin-1-yl-methyl]4-oxo[4H]-benzo-thiazolin-2-one [S-21377],Ki,[2]; [10],< 50 nM
same,Other known affinity,[1],No
"C[C@H](Cc1ccccc1)NCCCc1ccccc1 [(−)-PPAP, R(−)-N-(3-phenyl-1-propyl)-1-phenyl-2-aminopropane]",Other known affinity,[1],NMDAR
